Source: patent publication US8937062B2, “Compositions and methods for treating, reducing, ameliorating, or preventing infections caused by antibacterial drug-resistant bacteria” (Bausch & Lomb Incorporated, priority 2007, dated 2015)
In brackets after ≈: the same amount, converted by molar mass. Read-outs that look alike come from different tables or passages of the source.

Tests used:
[1] = test system: Methicillin-Resistant S. aureus Isolates; test: In vitro anti-bacterial activity, fourth test, Table 5; assay type: cell-based, Staphylococcus aureus; details: Staphylococcus aureus, read-out: MIC90
Description: In a fourth test, the anti-bacterial activity of the compound having Formula IV was tested against some methicillin-resistant S. aureus bacteria strains and compared to the anti-bacterial activity of three commercially available antibiotics: nadifloxacin (“NDFX”), ofloxacin (“OFLX”), and sparfloxacin (“SPFX”).

[2] = test system: APC-resistant Haemophilus influenza.; test: MIC90, agar plate dilution method (NCCLS), Table 2; assay type: cell-based; details: for MIC90 Range: APC-resistant Haemophilus influenza., 10 isolates; for MIC90: Haemophilus
Description: (§1) The MIC90 values for this test were determined by the agar plate dilution method according to the National Committee for Clinical Laboratory Standards (“NCCLS”).

[3] = test system: PCG-resistant S. pneumoniae; test: MIC90, agar plate dilution method (NCCLS), Table 2; assay type: cell-based; details: 10 isolates; for MIC90: Streptococcus pneumoniae
Description: as §1

[4] = test system: OFLX-resistant Enterobacteriaceae; test: MIC90, agar plate dilution method (NCCLS), Table 2; assay type: cell-based
Description: as §1

GM-resistant S. aureus = test: MIC90, agar plate dilution method (NCCLS), Table 2; assay type: cell-based; details: 10 isolates; for MIC90: Staphylococcus aureus
Description: as §1

[5] = test system: GM-resistant P. aeruginosa; test: MIC90, agar plate dilution method (NCCLS), Table 2; assay type: cell-based; details: 10 isolates; for MIC90: Pseudomonas aeruginosa
Description: as §1

OFLX-resistant S. aureus = test: MIC90, agar plate dilution method (NCCLS), Table 2; assay type: cell-based; details: 10 isolates; for MIC90: Staphylococcus aureus
Description: as §1

[6] = test system: Gentamicin-resistant Pseudomonas aeruginosa; test: In vitro anti-bacterial activity, resistant clinical isolates, fifth test, Table 6; assay type: cell-based; details: read-out: MIC90
Source text: (§2) As disclosed above, most of these bacteria strains are also relevant to infections of the ear and upper respiratory tract.

[7] = test system: Gentamicin-resistant Staphylococcus aureus; test: as above; assay type: cell-based; details: read-out: MIC90
Source text: as §2

[8] = test system: Penicillin-resistant Streptococcus pneumoniae; test: as above; assay type: cell-based; details: read-out: MIC90
Source text: as §2

[9] = test system: Ofloxacin-resistant Staphylococcus aureus; test: as above; assay type: cell-based; details: read-out: MIC90
Source text: as §2

[10] = test system: Ofloxacin-resistant Enterobacteriaceae; test: organism not typed; assay type: cell-based
Source text: as §2

[11] = test system: penicillin-resistant S. aureus; test: MIC90, Japanese Society of Chemotherapy guidelines (1993), Table 3; assay type: cell-based; details: Staphylococcus aureus, read-out: MIC90
Description: (§3) In a second test, compounds having Formulae IV and V, their racemic mixture, and OFLX were tested in vitro against S. aureus strains that are resistant to methicillin or penicillin. The test was conducted according to the guidelines of the Japanese Society of Chemotherapy (1993).

[12] = test system: methicillin-resistant S. aureus; test: as above; assay type: cell-based; details: Staphylococcus aureus, read-out: MIC90
Description: as §3

[13] = ATCC33591, Staphylococcus aureus (ATCC 33591)
[14] = ATCC33592, Staphylococcus aureus (ATCC 33592)
[15] = ATCC33593, Staphylococcus aureus (ATCC 33593)
[16] = Staphylococcus aureus (No. 395)
[17] = Staphylococcus aureus (No. 415)
[18] = Staphylococcus aureus (No. 419)
[19] = Staphylococcus aureus (No. 420)
[20] = Staphylococcus aureus (No. 421)

Row | SMILES | MIC90 [1, 13] [µg/mL] | MIC90 [1, 14] [µg/mL] | MIC90 [1, 15] [µg/mL] | MIC90 [1, 16] [µg/mL] | MIC90 [1, 17] [µg/mL] | MIC90 [1, 18] [µg/mL] | MIC90 [1, 19] [µg/mL] | MIC90 [1, 20] [µg/mL] | MIC90 Range [2] | MIC90 ([2]; read-out: MIC90 Geometric Mean) [µg/mL] | MIC90 ([2]; read-out: MIC90 Value) [µg/mL] | MIC90 Range [3] [µg/mL] | MIC90 ([3]; read-out: MIC90 Geometric Mean) [µg/mL] | MIC90 ([3]; read-out: MIC90 Value) [µg/mL] | MIC90 ([4]; read-out: MIC90 Geometric Mean) [µg/mL] | MIC90 ([4]; read-out: MIC90 Value) [µg/mL] | MIC90 (GM-resistant S. aureus; read-out: MIC90 Geometric Mean) [µg/mL] | MIC90 (GM-resistant S. aureus; read-out: MIC90 Value) [µg/mL] | MIC90 Range [5] [µg/mL] | MIC90 ([5]; read-out: MIC90 Geometric Mean) [µg/mL] | further results
1 | CC1CCc2c(N3CCC(O)CC3)c(F)cc3c(=O)c(C(=O)O)cn1c23 (stereo not shown) [NDFX, nadifloxacin] | 0.006 (≈ 0.0166 µM) | 0.05 (≈ 0.139 µM) | 0.024 (≈ 0.0666 µM) | 0.024 (≈ 0.0666 µM) | 0.1 (≈ 0.277 µM) | 0.39 (≈ 1.08 µM) | 0.78 (≈ 2.16 µM) | 0.78 (≈ 2.16 µM) | – | – | – | – | – | – | – | – | – | – | – | – | –
2 | CCn1cc(C(=O)O)c(=O)c2cc(F)c(N3CCNCC3)cc21 [NFLX, norfloxacin] | – | – | – | – | – | – | – | – | ≦0.06 μg/ml | ≤ 0.06 | ≤ 0.06 | 2 to 8 | 4.29 (≈ 13.4 µM) | 8 (≈ 25.1 µM) | 48.5 (≈ 152 µM) | 128 (≈ 401 µM) | 48.5 (≈ 152 µM) | > 128 | 0.5 to 128 | 5.66 (≈ 17.7 µM) | MIC90 Range ([4]; OFLX-resistant Enterobacteriaceae, 10 isolates): 16 to 128 µg/mL; MIC90 ([5]; read-out: MIC90 Value): 128 µg/mL (≈ 401 µM); MIC90 (OFLX-resistant S. aureus; read-out: MIC90 Geometric Mean): 194 µg/mL (≈ 608 µM); MIC90 (OFLX-resistant S. aureus; read-out: MIC90 Value): > 128 µg/mL; MIC90 [6]: 128 µg/mL (≈ 401 µM); MIC90 [7]: 128 µg/mL (≈ 401 µM); MIC90 [8]: 8 µg/mL (≈ 25.1 µM); MIC90 [9]: > 128 µg/mL; MIC90 [10]: 128 µg/mL (≈ 401 µM)
3 | C[C@@H]1CN(c2c(F)c(N)c3c(=O)c(C(=O)O)cn(C4CC4)c3c2F)C[C@H](C)N1 [SPFX, sparfloxacin] | 0.024 (≈ 0.0612 µM) | 0.1 (≈ 0.255 µM) | 0.024 (≈ 0.0612 µM) | 0.05 (≈ 0.127 µM) | 0.2 (≈ 0.51 µM) | 1.56 (≈ 3.98 µM) | 0.78 (≈ 1.99 µM) | 0.39 (≈ 0.994 µM) | – | – | – | – | – | – | – | – | – | – | – | – | –
4 | O=C1CCN(c2c(F)cc3c(=O)c(C(=O)O)cn(C4CC4)c3c2Cl)CCN1 [VI] | – | – | – | – | – | – | – | – | ≦0.06 μg/ml | ≤ 0.06 | ≤ 0.06 | 0.13 to 0.25 | 0.14 (≈ 0.356 µM) | 0.13 (≈ 0.33 µM) | 32 (≈ 81.3 µM) | 32 (≈ 81.3 µM) | 0.43 (≈ 1.09 µM) | 4 (≈ 10.2 µM) | 0.5 to 64 | 6.96 (≈ 17.7 µM) | MIC90 Range (GM-resistant S. aureus): ≦0.006-4 μg/ml; MIC90 ([5]; read-out: MIC90 Value): 32 µg/mL (≈ 81.3 µM); MIC90 Range (OFLX-resistant S. aureus): 0.25 to 8 µg/mL; MIC90 (OFLX-resistant S. aureus; read-out: MIC90 Geometric Mean): 1.52 µg/mL (≈ 3.86 µM); MIC90 (OFLX-resistant S. aureus; read-out: MIC90 Value): 4 µg/mL (≈ 10.2 µM)
5 | N[C@H]1CCCCN(c2c(F)cc3c(=O)c(C(=O)O)cn(C4CC4)c3c2Cl)C1 [V] | – | – | – | – | – | – | – | – | – | – | – | – | – | – | – | – | – | – | – | – | MIC90 ([11]; ATCC11632, S. aureus (ATCC 11632)): 0.05 µg/mL (≈ 0.127 µM); MIC90 ([11]; ATCC13301, S. aureus (ATCC 13301)): 0.05 µg/mL (≈ 0.127 µM); MIC90 ([12]; ATCC33591, S. aureus (ATCC 33591)): 0.1 µg/mL (≈ 0.254 µM); MIC90 ([12]; ATCC33592, S. aureus (ATCC 33592)): 0.05 µg/mL (≈ 0.127 µM); MIC90 ([12]; ATCC33593, S. aureus (ATCC 33593)): 0.05 µg/mL (≈ 0.127 µM); MIC90 ([12]; S. aureus (No. 395)): 0.1 µg/mL (≈ 0.254 µM); MIC90 ([12]; S. aureus (No. 415)): 0.05 µg/mL (≈ 0.127 µM); MIC90 ([12]; S. aureus (No. 419)): 0.1 µg/mL (≈ 0.254 µM); MIC90 ([12]; S. aureus (No. 420)): 0.05 µg/mL (≈ 0.127 µM); MIC90 ([12]; S. aureus (No. 421)): 0.1 µg/mL (≈ 0.254 µM)
